# ChEMBL document CHEMBL3580538, “Cytotoxic and antiviral nitrobenzoyl sesquiterpenoids from the marine-derived fungus Aspergillus ochraceus Jcma1F17” (Medchemcomm, 2014)
# Tests used:
# U-937 = experiment: Cytotoxicity against human U937 cells assessed as cell viability after 72 hrs by CCK8 assay; format: functional, cell-based; details: U-937, 72 h
# HL-60 = experiment: Cytotoxicity against human HL60 cells assessed as cell viability after 72 hrs by CCK8 assay; format: functional, cell-based; details: HL-60, 72 h
# [1] = Cytotoxicity against human BGC823 cells assessed as cell viability after 72 hrs by CCK8 assay; format: functional, cell-based; details: BGC-823, 72 h
# HeLa = experiment: Cytotoxicity against human HeLa cells assessed as cell viability after 72 hrs by CCK8 assay; format: functional, cell-based
# [2] = Cytotoxicity against human HuH7 cells assessed as cell viability after 72 hrs by CCK8 assay; format: functional, cell-based; details: Huh-7, 72 h
# NCI-H1975 = experiment: Cytotoxicity against human NCI-H1975 cells assessed as cell viability after 72 hrs by CCK8 assay; format: functional, cell-based; details: NCI-H1975, 72 h
# [3] = Antiviral activity against Influenza A virus A/Hong Kong/8/68 H3N2 infected in MDCK cells assessed as reduction in virus-induced cytopathic effect after 3 days by CCK8 assay; format: functional, cell-based, Influenza A virus (A/Hong Kong/8/1968([…])); details: 72 h
# MOLT-4 = experiment: Cytotoxicity against human MOLT4 cells assessed as cell viability after 72 hrs by CCK8 assay; format: functional, cell-based; details: MOLT-4, 72 h
# K562 = experiment: Cytotoxicity against human K562 cells assessed as cell viability after 72 hrs by CCK8 assay; format: functional, cell-based; details: K562, 72 h
# A549 = experiment: Cytotoxicity against human A549 cells assessed as cell viability after 72 hrs by CCK8 assay; format: functional, cell-based; details: A549, 72 h
# Enterovirus = experiment: Antiviral activity against EV71 infected in african green monkey Vero cells assessed as reduction in virus-induced cytopathic effect after 72 to 96 hrs by CCK8 assay; format: functional, organism-based; details: Enterovirus, 71, Vero
# [4] = system: Mycobacterium tuberculosis; experiment: Antituberculosis activity against Mycobacterium tuberculosis H37Ra after 3 days by autoluminescent assay; format: functional, organism-based
# MCF7 = experiment: Cytotoxicity against human MCF7 cells assessed as cell viability after 72 hrs by CCK8 assay; format: functional, cell-based; details: MCF7, 72 h
Compound,IC50 (U-937),IC50 (HL-60),IC50 [1],IC50 (HeLa),IC50 [2],IC50 (NCI-H1975),IC50 [3],IC50 (MOLT-4),IC50 (K562),IC50 (A549),IC50 (Enterovirus),IC50 [4],IC50 (MCF7)
C[C@]1(COC(=O)c2ccc([N+](=O)[O-])cc2)CCC[C@@]2(C)[C@H]1[C@H](O)C=C1C(=O)OC[C@@]12O,1950 nM,2440 nM,2320 nM,6120 nM,3280 nM,2080 nM,17000 nM,2390 nM,4330 nM,2410 nM,9400 nM,Not Active,4250 nM
C[C@]1(CO)CCC[C@@]2(C)[C@H]1[C@H](OC(=O)c1ccc([N+](=O)[O-])cc1)C=C1C(=O)OC[C@@]12O,3970 nM,2340 nM,2780 nM,6350 nM,2350 nM,4630 nM,50000 nM,2110 nM,4760 nM,2860 nM,50000 nM,Not Active,6080 nM
CC(/C=C/C(=O)NO)=C\[C@@H](C)C(=O)c1ccc(N(C)C)cc1 [TRICHOSTATIN],50 nM,30 nM,80 nM,100 nM,90 nM,90 nM,8 nM,,160 nM,,600 nM,Not Active,
